Source: PMC7767221, “Conjugates Containing Two and Three Trithiolato-Bridged Dinuclear Ruthenium(II)-Arene Units as In Vitro Antiparasitic and Anticancer Agents” (Pharmaceuticals, 2020)
Like-named read-outs stand apart in the source and are kept apart here.

Legend:
[1] = test system: T. gondii β-gal tachyzoites; conditions: 72 h, tachyzoites grown in HFF; previously reported; cited from earlier work
A2780 cells [2] = experiment: Growth inhibition, 72 h, cell density by Casy cell analyzer; assay type: cell-based, human; conditions: 72 h exposure, mean ± SD
From the text: (§1) Human ovarian carcinoma cells A2780 and the cisPt resistant variant A2780cisR were purchased from the European Center of Cell Cultures (ECACC, Salisbury, UK). The HEK-293 cell line was kindly provided by Prof. Mühlemann, University of Bern. The A24 cells and its subline (D-)A24cisPt8.0 were described previously. The cancer cells A24 and (D-)A24cisPt8.0 [105] (human lung adenocarcinoma cells wild type A24 and cisPt resistant (D-)A24cisPt8.0 subline), A2780 and A2780cisR (human ovarian cisplatin sensitive and resistant cancer cells), together with HEK293 (human embryonic kidney) cells as model for normal cells, were included in the study for the evaluation of the ruthenium compounds’ selectivity and cross-resistance with cisplatin. The A24 sublines, A2780 and A2780cisR were cultured in RPMI 1640 medium without riboflavin, phenol red and antibiotics, buffered with 4.5 mM HEPES (BioConcept, Allschwil, Switzerland), supplemented with 10% (v/v) fetal bovine serum (FBS) (Thermo Scientific, Weltham, MA, USA) as the only source of flavins, and with 13.5 mM NaHCO3. In order to retain cisplatin resistance in the A2780cisR cell line, 1 µM cisplatin was added to the medium every 2–3 passages. HEK293 cells were cultured in DMEM/F12 medium, supplemented with 10% (v/v) FBS. At subcultivation, cell monolayers were rinsed with PBS and exposed for 3 min to StemPro Accutase Cell Dissociation Reagent (Thermo Scientific, Weltham, MA, USA) at 36.5 °C. Detached cells were resuspended in culture medium. Cell densities were determined using Moxi flow cytometer according to manufacturer instructions (Orflo Technologies, Ketchum, ID, USA). Experiments and subcultivations were performed using light with wavelengths above 520 nm to prevent photochemical artifacts. Cytostatic drug response was quantified as previously reported. Briefly, HEK293, A24, A2780, A2780cisR, and (D-)A24cisPt8.0 single cell suspensions were freshly prepared from confluent cell layers using Accutase and diluted in culture medium to a cell density of 2 × 10^4 or 8 × 10^4 cells/mL (D-)A24cisPt8.0. 150 µl of this suspension was combined with 150 µl of twice the cisPt or Ru-compound concentration in a 96-well microtiter plate (TPP, Trasadingen, Switzerland). Test plates were incubated under standard conditions for 72 h. Cell densities were determined in a Casy I cell analyzer using Casystat software (OLS OMNI Life Science, Bremen, Germany). Drug concentrations leading to 50% growth inhibition compared to controls were calculated using GraphPad Software (La Jolla, CA, USA). Each experiment was done in triplicates.

(D-)A24cisPt8.0 cells [3] = experiment: as above; assay type: cell-based, human; conditions: 72 h exposure, mean ± SD
From the text: as §1

A2780cisR cells [4] = experiment: as above; assay type: cell-based, human; conditions: 72 h exposure, mean ± SD
From the text: as §1

HEK293 cells = experiment: as above; assay type: cell-based, human; conditions: 72 h exposure, mean ± SD
From the text: as §1

A24 cells = experiment: as above; assay type: cell-based, human; conditions: 72 h exposure, mean ± SD
From the text: as §1

(D-)A24cisPt8.0 cells [5] = test system: (D-)A24cisPt8.0 cells; parameters: method as in PMID 32485798; conditions: cited from earlier work
[6] = test system: HFF (human foreskin fibroblasts); experiment: Cytotoxicity in uninfected confluent HFF host cells (AlamarBlue assay); assay type: cell-based; conditions: 72 h, non-infected HFF
From the text: (§2) If not otherwise stated, all tissue culture media were purchased from Gibco-BRL, and biochemical agents purchased from Sigma-Aldrich. HFF (SCRC-1041.1) were purchased from ATCC, and were maintained in DMEM medium containing 10% fetal calf serum (FCS, Gibco-BRL, Waltham, MA, USA), and antibiotics as described. Transgenic T. gondii β-gal (expressing the β-galactosidase gene from Escherichia coli) were kindly provided by Prof. David Sibley (Washington University, St. Louis, MO, USA) and were maintained in HFF as host cells, and were isolated as described before.
Cytotoxicity assays using uninfected confluent HFF host cells were performed as previously described by AlamarBlue assay. In brief, confluent HFF monolayers in 96 well-plates were exposed to 0.1, 1 and 2.5 µM of each compound. Non-treated HFF as well as DMSO controls (0.01%, 0.1% and 0.25%) were included. After 72 h of incubation at 37 °C/5% CO2, the medium was removed, and plates were washed once with PBS. Resazurin stock solution was diluted 1:200 in PBS and 200 µL were added to each well. Plates were read at excitation wavelength 530 nm and emission wavelength […] at the EnSpire® multimode plate reader (PerkinElmer, Inc). Fluorescence was measured at different timepoints. Relative fluorescence units were calculated from timepoints with linear increase.

[7] = test system: T. gondii β-gal tachyzoites; experiment: T. gondii β-gal tachyzoite proliferation in HFF (β-galactosidase / CPRG assay); assay type: cell-based, Toxoplasma gondii; conditions: 72 h, % of DMSO control
From the text: as §2
Compounds were prepared as 1 mM stock solutions in DMSO (dimethyl sulfoxide, Sigma, St. Louis, MO, USA). For activity assays, HFF monolayers were cultured in 96 well plates by seeding 5 × 10^3 HFF per well and allowing them to grow to confluence in phenol-red free culture medium at 37 °C/5% CO2. For infection, T. gondii β-gal tachyzoites were separated from their host cells as described, parasites were isolated and HFF monolayers were infected with freshly isolated tachyzoites (1 × 10^3 per well), with compounds solutions added concomitantly during infection.
For the primary screening, T. gondii β-gal infected HFF were exposed to 0.1 and 1µM of each compound for a period of 72 h, or the corresponding concentration of DMSO (0.01% and 0.1%, respectively) as control. For the determination of IC50 values against T. gondii β-gal, compounds were added at 8 concentrations: 0.007, 0.01, 0.03, 0.06, 0.12, 0.25, 0.5, and 1 µM. After 72 h of culture at 37 °C/5% CO2, the medium was aspirated, and cells were permeabilized by adding 90 µL PBS (phosphate buffered saline) containing 0.05% Triton X-100. After addition of 10 µL 5 mM chlorophenol red-β-D-galactopyranoside (CPRG; Roche Diagnostics, Rotkreuz, Switzerland) dissolved in PBS, the absorption shift was measured at 570 nm wavelength at various time points using an EnSpire® multimode plate reader (PerkinElmer, Inc, Waltham, MA, USA). For the primary screening at 0.1 and 1 μM, the activity, measured as the release of chlorophenol red over time, was calculated as percentage from the respective DMSO control, which represented 100% of T. gondii β-gal growth. For the IC50 assays, the activity measured as the release of chlorophenol red over time was proportional to the number of live parasites down to 50 per well as determined in pilot assays. IC50 values were calculated after the logit-log-transformation of relative growth and subsequent regression analysis. All calculations were performed using the corresponding software tool contained in the Excel software package (Microsoft, Redmond, WA, USA).

Neospora caninum [8] = test system: Neospora caninum; parameters: method as in PMID 28652238, PMID 30620038, PMID 31469986; conditions: read-out: N. caninum proliferation IC50; cited from earlier work
A2780cisR cells [9] = test system: A2780cisR cells; parameters: method as in PMID 27561129, doi:10.1016/j.jorganchem.2014.10.050, PMID 27187018; conditions: read-out: IC50 against A2780cisR cells; cited from earlier work
T. gondii = test system: T. gondii; parameters: method as in PMID 28652238; conditions: cited from earlier work; for parasiticidal action on T. gondii: applied at 250 nM; for IC50: read-out: T. gondii proliferation IC50
HFF host cells = conditions: cited from earlier work
Neospora caninum [10] = test system: Neospora caninum; parameters: method as in PMID 28652238, PMID 30620038, PMID 31469986; conditions: applied orally, neosporosis mouse model; cited from earlier work
A2780 cells [11] = conditions: read-out: IC50 against A2780 cells; cited from earlier work

Compound	IC50 (A2780 cells [2]) [µM]	IC50 ((D-)A24cisPt8.0 cells [3]) [µM]	IC50 (A2780cisR cells [4]) [µM]	IC50 (HEK293 cells) [µM]	IC50 (A24 cells) [µM]	IC50 (Neospora caninum [8]) [nM]	parasiticidal action on T. gondii (T. gondii)	parasite load in the central nervous system (Neospora caninum [10])	other results
CCc1nc(N)nc(N)c1-c1ccc(Cl)cc1 [Pyrimethamine, pyrimethamine]									IC50 [1]: 326 nM
N.N.[Cl][Pt][Cl] [cisPt, cis-diamminedichloroplatinum(II)]	0.21 ± 0.119	8.89 ± 0.446	4.08 ± 0.21	0.515 ± 0.064	0.333 ± 0.075				resistance to cisplatin of (D-)A24cisPt8.0 subline compared to the A24 cells ((D-)A24cisPt8.0 cells [5]): approximately 30 fold
[(η6-p-MeC6H4Pri)2Ru2(μ2-SCH2C6H4-p-But)2(μ2-SC6H4-p-NH)-(CO)-m-C6H4-(CO)-(p-NH-C6H4-μ2S)Ru2(μ2-SCH2C6H4-p-But)2(η6-p-MeC6H4Pri)2]Cl2 [Compound 17]	0.416 ± 0.106	0.09 ± 0.003	0.644 ± 0.08	0.447 ± 0.043	0.24 ± 0.016				HFF viability (%) 0.1 µM [6]: 102 ± 2%; HFF viability (%) 1 µM [6]: 106 ± 7%; T. gondii β-gal growth (%) 0.1 µM [7]: 117 ± 7%; T. gondii β-gal growth (%) 1 µM [7]: 109 ± 6%
[(η6-p-MeC6H4Pri)2Ru2(μ2-SCH2C6H4-p-But)2(μ2-SC6H4-p-O)-(CO)(CH2)3(CO)-(p-O-C6H4-μ2S)Ru2(μ2-SCH2C6H4-p-But)2(η6-p-MeC6H4Pri)2]Cl2 [Compound 7]	0.097 ± 0.041	0.053 ± 0.007	0.072 ± 0.008	0.085 ± 0.026	0.033 ± 0.002				HFF viability (%) 0.1 µM [6]: 76 ± 2%; HFF viability (%) 1 µM [6]: 25 ± 4%; T. gondii β-gal growth (%) 0.1 µM [7]: 68 ± 2%; T. gondii β-gal growth (%) 1 µM [7]: 0 ± 6%
[(η^6-p-MeC6H4Pr^i)2Ru2(µ2-S-p-C6H4R)3]^+ with R = p-Bu^t						5	did not act in a parasiticidal manner	did not reduce parasite load in the central nervous system	IC50 (A2780cisR cells [9]): 30 nM; IC50 (T. gondii): 62 nM; dosage that did not affect HFF host cells (HFF host cells): ≥ 200 µM; IC50 (A2780 cells [11]): 30 nM
[(η^6-p-MeC6H4Pr^i)2Ru2(µ2-S-p-C6H4R)3]^+ with R = p-Me [A]						15	did not act in a parasiticidal manner	did not reduce parasite load in the central nervous system	IC50 (T. gondii): 34 nM; dosage that did not affect HFF host cells (HFF host cells): ≥ 200 µM
[(η^6-p-MeC6H4Pr^i)2Ru2(µ2-SR^1)(µ2-SR^2)2]^+ with R^1 = CH2-C6H4-p-Bu^t, R^2 = C6H4-p-OH, X = Cl^- [D]						1	did not act in a parasiticidal manner	did not reduce parasite load in the central nervous system	
